Patent publication US12060351B2, “Thiadiazole IRAK4 inhibitors” (Gilead Sciences, Inc., priority 2018, dated 2024)
Like-named read-outs stand apart in the source and are kept apart here.

Legend:
IRAK4 enzyme = target: T1, IRAK4 enzyme (Homo sapiens, UniProt Q9NWZ3); assay: IRAK4 Biochemical Assay (TR-FRET, STK1 KinEASE); conditions: 500 μM ATP
T1 construct: purchased Carna Biosciences, Chuo-ku, Kobe, Japan
T1 sequence (Q9NWZ3 1-460): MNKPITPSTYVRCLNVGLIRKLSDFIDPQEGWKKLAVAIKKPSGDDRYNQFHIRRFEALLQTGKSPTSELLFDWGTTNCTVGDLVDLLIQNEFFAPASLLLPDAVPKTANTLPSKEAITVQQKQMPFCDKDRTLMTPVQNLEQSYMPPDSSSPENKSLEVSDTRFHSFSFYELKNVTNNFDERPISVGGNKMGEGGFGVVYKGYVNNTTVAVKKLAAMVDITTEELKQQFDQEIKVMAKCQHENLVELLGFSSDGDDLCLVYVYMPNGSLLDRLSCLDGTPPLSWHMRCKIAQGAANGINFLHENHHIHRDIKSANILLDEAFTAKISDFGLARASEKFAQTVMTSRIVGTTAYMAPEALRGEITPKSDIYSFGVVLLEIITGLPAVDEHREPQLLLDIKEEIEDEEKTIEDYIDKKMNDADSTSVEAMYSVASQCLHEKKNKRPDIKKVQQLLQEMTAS
Procedure: IRAK4 enzyme (Carna Biosciences, Chuo-ku, Kobe, Japan) activity was measured by detecting phosphorylated peptide substrate formation using an antibody against the phosphorylated peptide substrate. This is a time-resolved fluorescence resonance energy transfer (TR-FRET) immunoassay, based on the STK1 KinEASE Assay (Cisbio, Bedford, Massachusetts). The assay was designed as a simple two-step, endpoint assay (a 5 μl enzyme reaction followed by 5 μl stop and detect Solution) performed in ProxiPlate-384 Plus plates (Perkin Elmer, Waltham, Massachusetts). […] Compounds diluted in DMSO were spotted into 384 well plates using a Labcyte® Echo 550 Liquid Handling System prior to addition of IRAK4 enzyme and peptide substrate. Reaction solutions were delivered using a Multi-Flo (Bio-Tek Instruments). The enzyme and peptide solution was incubated with compound for 15 minutes at room temp before the reaction was initiated by the addition of ATP. The standard 5 μl reaction mixture contained 500 μM ATP, 2 μM peptide (STK1 Peptide), 0.75 nM of IRAK4 in reaction buffer (50 mM HEPES, pH 7.0, 0.02% NaN3, 0.01% BSA, 0.1 mM Orthovanadate, 5 mM MgCl2, 0.025% NP-40, 1 mM DTT). After 120 min of incubation at room temperature, 5 μl of Stop and Detect Solution (1:100 Cryptate labeled anti-phosphorylated peptide antibody solution and 125 nM Tracer in a 50 mM HEPES pH 7.0 detection buffer containing sufficient EDTA) was added. The plate was then further incubated for 60 minutes at room temperature and read on Envision 2103 Multilabeled reader (PerkinElmer) with excitation/emission/FRET emission at 340 nm/615 nm/665 nm, respectively. Fluorescence intensities at 615 nm and 665 nm emission wavelengths were expressed as a ratio (665 nm/615 nm).

TNFα = assay: IRAK4 Monocyte TNFα Cell Based Assay (LPS-stimulated, TR-FRET TNFα detection); design: species or system human; conditions: read-out: EC50 MONO TNF HTRF
Procedure: IRAK4 Monocyte TNFα Cell Based Assay Procedure:
The cell suspension was then plated at a density of 5,000 cells/well onto black 384 well Greiner clear bottom plates. Plates were pre-spotted with test compounds and serially diluted in DMSO where 40 nL/well were delivered using the Echo 550 acoustic liquid dispenser (Labcyte®) for a final DMSO concentration of 0.1%. Plated cells were treated with compound for 1 hour at 37° C. Cells were then stimulated with 50 pg/ml of LPS (Sigma) excluding outside columns of plate used for unstimulated cell control wells. Cells were incubated for an additional 4 hours at 37° C. Cells were then spun out of the media and 5 μl of sample were taken and analyzed for total TNFα content using the TR-FRET Human TNFα detection system (CisBio). This system utilizes two labeled antibodies (cryptate and XL665) that bind to two different epitopes of the TNFα molecule and produce FRET signal proportional to the concentration of TNFα in the sample. Detection antibodies are mixed 50:50 and 5 μL were dispensed into each well. Plates were covered with clear seals and incubated at room temp overnight. […] Percent of control was calculated as follows: % Control=100×(RatioSample−Ratio0% Stimulation)/(Ratio100% Stimulation−Ratio0% Stimulation) where unstimulated cells (0% stimulation) were the negative control and stimulated cells (100% stimulation) were used as the positive control.

[1] = Homo sapiens, Monocyte, human monocytes, LPS-stimulated, Table 2 second part (compounds 33-343)
[2] = human monocytes, LPS-stimulated, Table 2 second part (compounds 33-343)

SMILES	EC50 (TNFα; [1])	also measured
CC(C)Nc1cc(-c2ccc3cc(C#N)cnn23)ncc1-c1nnc([C@@H]2CC[C@H]2C(C)(C)O)s1 (racemic) [Example 88, 7-(5-(5-((1,2-trans)-2-(2-hydroxypropan-2-yl)cyclobutyl)-1,3,4-thiadiazol-2-yl)-4-(isopropylamino)pyridin-2-yl)pyrrolo[1,2-b]pyridazine-3-carbonitrile]	–	IC50 (IRAK4 enzyme; IC50 IRAK4-HTBS, Table 2 second part (compounds 33-343)): 0.83 nM
CC(C)Nc1cc(-c2ccc3cc(C#N)cnn23)ncc1-c1nnc(N2CCS(=O)(=O)CC2)s1 [Compound 257, 7-(5-(5-(1,1-dioxidothiomorpholino)-1,3,4-thiadiazol-2-yl)-4-(isopropylamino)pyridin-2-yl)pyrrolo[1,2-b]pyridazine-3-carbonitrile]	≥ 10000 nM	–
CC(=O)N[C@H]1CC[C@H](c2nnc(-c3cnc(-c4ccc5cc(C#N)cnn45)cc3NC(C)C)s2)CC1 [Example 24, N-((1r,4r)-4-(5-(6-(3-cyanopyrrolo[1,2-b]pyridazin-7-yl)-4-(isopropylamino)pyridin-3-yl)-1,3,4-thiadiazol-2-yl)cyclohexyl)acetamide]	–	IC50 (IRAK4 enzyme; Table 2 first part (compounds 1-32), read-out: IC50 HTRF): < 1 nM
CC(=O)N[C@@H]1[C@@H]2CC[C@H]1CN(c1nnc(-c3cnc(-c4ccc5cc(C#N)cnn45)cc3N[C@H](C)C#N)s1)C2 [Example 53, N-((1R,5S,8S)-3-(5-(4-(((R)-1-cyanoethyl)amino)-6-(3-cyanopyrrolo[1,2-b]pyridazin-7-yl)pyridin-3-yl)-1,3,4-thiadiazol-2-yl)-3-azabicyclo[3.2.1]octan-8-yl)acetamide]	0.6 nM	–
CC(=O)N[C@@H]1CCN(c2nnc(-c3cnc(-c4ccc5cc(C#N)cnn45)cc3NC(C)C)s2)C[C@@H]1O [Example 63, N-((3S,4R)-1-(5-(6-(3-cyanopyrrolo[1,2-b]pyridazin-7-yl)-4-(isopropylamino)pyridin-3-yl)-1,3,4-thiadiazol-2-yl)-3-hydroxypiperidin-4-yl)acetamide]	–	IC50 (IRAK4 enzyme; Table 2 second part (compounds 33-343), read-out: IC50 IRAK4-HTBS): 0.29 nM
CC(=O)NC12CCC(c3nnc(-c4cnc(-c5ccc6cc(C#N)cnn56)cc4N[C@H](C)C#N)s3)(CC1)CC2 [Example 72, (R)-N-(4-(5-(4-((1-cyanoethyl)amino)-6-(3-cyanopyrrolo[1,2-b]pyridazin-7-yl)pyridin-3-yl)-1,3,4-thiadiazol-2-yl)bicyclo[2.2.2]octan-1-yl)acetamide]	2.8 nM	–
CC(C)Nc1cc(-c2ccc3cc(C#N)cnn23)ncc1-c1nnc(N2C[C@H]3CC[C@@H](C2)[C@@H]3NC(=O)[C@@H](C)O)s1 [Example 90, (R)-N-((1R,5S,8s)-3-(5-(6-(3-cyanopyrrolo[1,2-b]pyridazin-7-yl)-4-(isopropylamino)pyridin-3-yl)-1,3,4-thiadiazol-2-yl)-3-azabicyclo[3.2.1]octan-8-yl)-2-hydroxypropanamide]	3.6 nM	–
CC(C)Nc1cc(-c2ccc3cc(C#N)cnn23)ncc1-c1nnc(N2C[C@H]3CC[C@@H](C2)[C@@H]3NC(=O)N2CCN(C)CC2)s1 [Example 96, N-((1R,5S,8s)-3-(5-(6-(3-cyanopyrrolo[1,2-b]pyridazin-7-yl)-4-(isopropylamino)pyridin-3-yl)-1,3,4-thiadiazol-2-yl)-3-azabicyclo[3.2.1]octan-8-yl)-4-methylpiperazine-1-carboxamide]	2.3 nM	–
CC(=O)N1CCN(C(=O)N[C@@H]2[C@@H]3CC[C@H]2CN(c2nnc(-c4cnc(-c5ccc6cc(C#N)cnn56)cc4NC(C)C)s2)C3)CC1 [Example 104, 4-acetyl-N-((1R,5S,8s)-3-(5-(6-(3-cyanopyrrolo[1,2-b]pyridazin-7-yl)-4-(isopropylamino)pyridin-3-yl)-1,3,4-thiadiazol-2-yl)-3-azabicyclo[3.2.1]octan-8-yl)piperazine-1-carboxamide]	1.7 nM	–
CC(C)Nc1cc(-c2ccc3cc(C#N)cnn23)ncc1-c1nnc(N2CC3CC(C2)N3C(=O)CN=S(C)(C)=O)s1 [Example 107, 7-(5-(5-(6-(2-((dimethyl(oxo)-16-sulfanylidene)amino)acetyl)-3,6-diazabicyclo[3.1.1]heptan-3-yl)-1,3,4-thiadiazol-2-yl)-4-(isopropylamino)pyridin-2-yl)pyrrolo[1,2-b]pyridazine-3-carbonitrile]	–	EC50 (TNFα; [2]): 18.4 nM
CC1(Nc2cc(-c3ccc4cc(C#N)cnn34)ncc2-c2nnc(N3CC4CC(C3)N4C(=O)C(C)(C)O)s2)COC1 [Example 112, 7-(5-(5-(6-(2-hydroxy-2-methylpropanoyl)-3,6-diazabicyclo[3.1.1]heptan-3-yl)-1,3,4-thiadiazol-2-yl)-4-((3-methyloxetan-3-yl)amino)pyridin-2-yl)pyrrolo[1,2-b]pyridazinc-3-carbonitrile]	–	EC50 (TNFα; [2]): 13.1 nM
C[C@H](C#N)Nc1cc(-c2ccc3cc(C#N)cnn23)ncc1-c1nnc(N2CC3CC(C2)N3C(=O)C(C)(C)O)s1 [Example 115, 7-(4-(((R)-1-cyanoethyl)amino)-5-(5-(6-(2-hydroxy-2-methylpropanoyl)-3,6-diazabicyclo[3.1.1]heptan-3-yl)-1,3,4-thiadiazol-2-yl)pyridin-2-yl)pyrrolo[1,2-b]pyridazine-3-carbonitrile]	–	EC50 (TNFα; Homo sapiens, Monocyte): 3.5 nM
CC(C)Nc1cc(-c2ccc3cc(C#N)cnn23)ncc1-c1nnc(N2C[C@H]3CC[C@@H](C2)[C@@H]3NC(=O)N2CCN(C3COC3)CC2)s1 [Example 116, N-((1R,5S,8s)-3-(5-(6-(3-cyanopyrrolo[1,2-b]pyridazin-7-yl)-4-(isopropylamino)pyridin-3-yl)-1,3,4-thiadiazol-2-yl)-3-azabicyclo[3.2.1]octan-8-yl)-4-(oxetan-3-yl)piperazine-1-carboxamide]	4.1 nM	–
CC(C)Nc1cc(-c2ccc3cc(C#N)cnn23)ncc1-c1nnc(C2CCNCC2)s1 [Example 129, 7-(4-(isopropylamino)-5-(5-(piperidin-4-yl)-1,3,4-thiadiazol-2-yl)pyridin-2-yl)pyrrolo[1,2-b]pyridazine-3-carbonitrile]	21.7 nM	–
CC(C)Nc1cc(-c2ccc3cc(C#N)cnn23)ncc1-c1nnc([C@H]2C[C@@H](NC(=O)C3CC3)C2)s1 [Example 281, N-((1s,3s)-3-(5-(6-(3-cyanopyrrolo[1,2-b]pyridazin-7-yl)-4-(isopropylamino)pyridin-3-yl)-1,3,4-thiadiazol-2-yl)cyclobutyl)cyclopropanecarboxamide]	8280 nM	–
CC(C)Nc1cc(-c2ccc3cc(C#N)cnn23)ncc1-c1nnc([C@H]2C[C@H](NC3COC3)C2)s1 [Example 283, 7-(4-(isopropylamino)-5-(5-((1r,3r)-3-(oxetan-3-ylamino)cyclobutyl)-1,3,4-thiadiazol-2-yl)pyridin-2-yl)pyrrolo[1,2-b]pyridazine-3-carbonitrile]	19.9 nM	–
CC(C)(O)C(=O)NC12CCC(c3nnc(-c4cnc(-c5ccc6cc(C#N)cnn56)cc4NC4CCOCC4)s3)(CC1)CC2 [Example 337, N-(4-(5-(6-(3-cyanopyrrolo[1,2-b]pyridazin-7-yl)-4-((tetrahydro-2H-pyran-4-yl)amino)pyridin-3-yl)-1,3,4-thiadiazol-2-yl)bicyclo[2.2.2]octan-1-yl)-2-hydroxy-2-methylpropanamide]	3.3 nM	–
